Measured values taken from patent US9737075B2, “Synergistic benzoxaborole-containing anti-fungicidal composition” (The Penn State Research Foundation, priority 2015, dated 2017).
≈ marks a conversion by molar mass, not a printed value. Read-outs that look alike come from different tables or passages of the source.

How the values were obtained:
Type in all cases: cell-based
Aspergillus niger = assay: Broth microdilution MIC of individual antifungals; settings: read-out: Independent MIC
Sclerotinia homoeocarpa = assay: Broth microdilution MIC of individual antifungals; settings: Clarireedia homoeocarpa; Sclerotinia homoeocarpa; individual antifungal, 25% PDB, about 25° C., 72 hours; range over N independent triplicate studies; read-out: Independent MIC
Botrytis cinerea 10-1728 = assay: Broth microdilution MIC of individual antifungals; settings: 101728; Botrytis cinerea 10-1728; individual antifungal, 25% PDB, about 25° C., 72 hours; range over N independent triplicate studies; read-out: Independent MIC
Candida albicans = assay: Broth microdilution MIC of individual antifungals; settings: read-out: Independent MIC
Fusarium graminearum = assay: microbe, parasite or virus in culture; settings: Fusarium graminearum, 72 h, read-out: Independent MIC
Mucor sp. = assay: Broth microdilution MIC of individual antifungals; settings: individual antifungal, 25% PDB, about 25° C., 72 hours, range over N independent triplicate studies
Magnaporthe grisea = assay: microbe, parasite or virus in culture; settings: Pyricularia oryzae, 72 h, read-out: Independent MIC
Rhizoctonia solani = assay: Broth microdilution MIC of individual antifungals; settings: individual antifungal, 25% PDB, about 25° C., 72 hours, range over N independent triplicate studies, read-out: Independent MIC
[1] = system: Colletotrichum orbiculare; assay: Broth microdilution MIC of individual antifungals; settings: read-out: Independent MIC
[2] = system: Mycosphaerella zeae-maydis; assay: Broth microdilution MIC of individual antifungals; settings: Didymella maydis, individual antifungal, 25% PDB, about 25° C., 72 hours, range over N independent triplicate studies
Alternaria solani = assay: Broth microdilution MIC of individual antifungals; settings: individual antifungal, 25% PDB, about 25° C., 72 hours, range over N independent triplicate studies, read-out: Independent MIC
Aureobasidium pullulans = assay: Broth microdilution MIC of individual antifungals; settings: individual antifungal, 25% PDB, about 25° C., 72 hours, range over N independent triplicate studies, read-out: Independent MIC
Aspergillus flavus = assay: Broth microdilution MIC of individual antifungals; settings: individual antifungal, 25% PDB, about 25° C., 72 hours, range over N independent triplicate studies, read-out: Independent MIC
Aspergillus fumigatus = assay: Broth microdilution MIC of individual antifungals; settings: individual antifungal, 25% PDB, about 25° C., 72 hours, range over N independent triplicate studies, read-out: Independent MIC
Botrytis cinerea B17 = assay: Broth microdilution MIC of individual antifungals; settings: Botrytis cinerea B17; individual antifungal, 25% PDB, about 25° C., 72 hours; range over N independent triplicate studies; read-out: Independent MIC
Fusarium verticillioides = assay: Broth microdilution MIC of individual antifungals; settings: individual antifungal, 25% PDB, about 25° C., 72 hours, range over N independent triplicate studies, read-out: Independent MIC
[3] = system: Fusarium solani f. sp. pisi (MP VI); assay: Broth microdilution MIC of individual antifungals; settings: Fusarium solani f. sp. pisi (MP VI); individual antifungal, 25% PDB, about 25° C., 72 hours; range over N independent triplicate studies; read-out: Independent MIC
Fusarium oxysporum ST33 = assay: Broth microdilution MIC of individual antifungals; settings: individual antifungal, 25% PDB, about 25° C., 72 hours, range over N independent triplicate studies
[4] = system: Fusarium oxysporum f. sp. lycopersici; assay: Broth microdilution MIC of individual antifungals; settings: individual antifungal, 25% PDB, about 25° C., 72 hours, range over N independent triplicate studies
Stachybotrys chartarum = assay: Broth microdilution MIC of individual antifungals; settings: individual antifungal, 25% PDB, about 25° C., 72 hours, range over N independent triplicate studies, read-out: Independent MIC
Rhizopus sp. = assay: Broth microdilution MIC of individual antifungals; settings: Rhizopus, 72 h, Rhizopus sp.; individual antifungal, 25% PDB, about 25° C., 72 hours; range over N independent triplicate studies; read-out: Independent MIC
Pythium aphanodermatum = assay: Broth microdilution MIC of individual antifungals; settings: individual antifungal, 25% PDB, about 25° C., 72 hours, range over N independent triplicate studies
Phytophthora pini = assay: Broth microdilution MIC of individual antifungals; settings: individual antifungal, 25% PDB, about 25° C., 72 hours, range over N independent triplicate studies
[5] = individual antifungal, 25% PDB, about 25° C., 72 hours, range over N independent triplicate studies

SMILES	MIC (Sclerotinia homoeocarpa)	MIC (Botrytis cinerea 10-1728)	MIC (Fusarium graminearum)	MIC (Mucor sp.)	MIC (Magnaporthe grisea)	MIC (Rhizoctonia solani)	MIC [2]	MIC (Alternaria solani)	MIC (Aspergillus flavus)	MIC (Aspergillus fumigatus)	MIC (Aspergillus niger; [5])	MIC (Candida albicans; [5])	MIC (Fusarium verticillioides)	MIC (Rhizopus sp.)	further results
CC(C)OP(=O)(OC(C)C)SCc1ccccc1 [Iprobenfos, iprobenfos]	12.5 to 25 µg/mL	100 to 200 µg/mL	200 to 400 µg/mL (≈ 694 to 1390 µM)	100 to 200 µg/mL	25 µg/mL (≈ 86.7 µM)	200 to 400 µg/mL	–	–	–	–	–	–	–	–	MIC (Aspergillus niger; 72 h): 200 to 300 µg/mL; MIC (Candida albicans; 72 h): 200 to 400 µg/mL; MIC ([1]; 72 h): 12.5 to 25 µg/mL
Cc1cc(C)nc(Nc2ccccc2)n1 [Pyrimethanil, pyrimethanil]	50 to 100 µg/mL	50 to 100 µg/mL	200 µg/mL (≈ 1000 µM)	200 µg/mL	100 to 200 µg/mL (≈ 502 to 1000 µM)	–	6.25 to 12.5 µg/mL	100 to 200 µg/mL	25 µg/mL	0.78 to 1 µg/mL	100 to 200 µg/mL	200 µg/mL	200 µg/mL	200 to 400 µg/mL	MIC (Aureobasidium pullulans): 25 to 50 µg/mL; MIC (Botrytis cinerea B17): 50 to 100 µg/mL; MIC [3]: 200 to 400 µg/mL; MIC (Fusarium oxysporum ST33): 200 µg/mL; MIC [4]: 200 µg/mL; MIC (Stachybotrys chartarum): 50 to 90 µg/mL; MIC (Pythium aphanodermatum): 100 to 200 µg/mL; MIC (Phytophthora pini): 100 µg/mL
CC(C)(C)C(O)(CCc1ccc(Cl)cc1)Cn1cncn1 (stereo not shown) [Tebuconazole, tebuconazole]	0.39 to 0.78 µg/mL	1 to 1.56 µg/mL	–	12.5 to 15 µg/mL	–	3.12 to 6.25 µg/mL	50 to 100 µg/mL	25 to 50 µg/mL	3 to 3.12 µg/mL	0.78 to 1.56 µg/mL	3.12 µg/mL	100 to 200 µg/mL	1.56 to 3 µg/mL	0.78 µg/mL	MIC [1, 5]: 1.56 to 3.13 µg/mL
